For series [1] the following is noted: cited from earlier work.
The next series deals with T1, TrkB (Homo sapiens, UniProt Q16620).
T1 construct: expressed in transfected cells; host or cells: human SH-SY5Y cells (BR6/Br6) and T48 cells
The experiment in a line: Pro-survival MTT assay after staurosporine-induced apoptosis in BR6 and T48 cells. It is filed as cell-based. To be noted: STS 100 nM, 24 h, in words, relative to CF3CN. On the procedure:
FIG. 1b illustrates EC50 values of CF3CN and derivatives thereof. BR6 and T48 cells are treated with staurosporine (STS) (100 nM) and TrkB agonists. CF3CN and compounds #1-4 are added in a dose-dependent manner at concentrations of 0, 5, 10, 50, 100, 500, and 1,000 nM. After 24 h, an MTT assay is performed, and EC50 values are calculated using Prism software (n=3; data are represented by mean±standard deviation (SD)).
The pro-survival effects of four derivatives were quantitatively analyzed in human SH-SY5Y cells and T48 cells stably transfected with the TrkB. […] As PLCγ1 bound with a p-Y816 residue on the TrkB receptor and was subsequently tyrosine-phosphorylated by active TrkB, a tyrosine phosphorylation signal was also monitored in this example (FIG. 1c).
Background: Tetrazolium assays rely on reduction of a dye to a coloured formazan, in cell work by metabolically active cells.

Another series is described as follows: Permeability PAMPA-BBB. It is filed as in vitro ADME. To be noted: for Papp: PAMPA, read-out: Permeability-PAMPA-BBB Pe. For orientation: The PAMPA barrier holds no transporters, so it reflects passive diffusion.
The next series addresses hERG (Homo sapiens, UniProt Q12809). Description: hERG inhibition. For orientation: The hERG channel carries a current that helps repolarise heart muscle cells.
Series [2] can be described thus: Stability in plasma (mouse). It is filed as in vitro ADME. Conditions: for half-life: plasma, read-out: Stability-Plasma T1/2.
Series [3] in a line: Plasma protein binding (human). Type of series: in vitro ADME. Conditions: plasma, read-out: Plasma Protein Binding Fu, plasma.
The nature of a further series: Permeability Caco-2. Type of series: in vitro ADME. Conditions: human, Caco-2; b-a.
The nature of series [4]: Stability in hepatocytes (human). Type of series: in vitro ADME. Conditions: for hepatocyte CLint / half-life: hepatocytes; for hepatocyte CLint: read-out: Stability-Hepatocytes CL; for half-life: read-out: Stability-Hepatocytes T1/2.
The next series is described as follows: Solubility (pH 7.4; PBS). Type of series: physicochemical.
Series [5] can be described thus: Stability in microsomes (human). It is filed as in vitro ADME.
Series [6] can be described thus: Plasma protein binding (mouse). Type of series: in vitro ADME. Conditions: plasma, read-out: Plasma Protein Binding Fu, plasma.
Series [7] can be described thus: Stability in plasma (human). To be noted: for half-life: plasma, read-out: Stability-Plasma T1/2. It is filed as in vitro ADME.
A short description of series [8]: Stability in hepatocytes (mouse). Type of series: in vitro ADME. To be noted: for hepatocyte CLint / half-life: hepatocytes; for hepatocyte CLint: read-out: Stability-Hepatocytes CL; for half-life: read-out: Stability-Hepatocytes T1/2.
Series [9] concerns plasma proteins. The experiment in a line: Plasma protein binding (human). It is filed as in vitro ADME.
The nature of series [10]: In vivo PK (plasma and brain, LC-MS/MS) in ICR mice. Conditions: Table 1; dose and route not stated there.
The test system of a further series is Caco-2 cells. The experiment in a line: Permeability Caco-2. It is filed as in vitro ADME.
The test system of series [11] is plasma proteins. Description: Plasma protein binding (mouse). Type of series: in vitro ADME.
Series [12] can be described thus: Stability in microsomes (mouse). It is filed as in vitro ADME.

In general, IC50 refers to the concentration that gives 50% inhibition. Read a low IC50 as greater potency in that assay. A word on the Papp B→A: it is the apparent permeability from the basolateral to the apical side of a cell layer. In general, solubility refers to how much of the substance goes into solution per volume. A high value points to much dissolved substance.

SMILES strings stand for the structures. Where two headings read alike, the source gives them in different places.

Chain of hERG (Q12809 whole entry): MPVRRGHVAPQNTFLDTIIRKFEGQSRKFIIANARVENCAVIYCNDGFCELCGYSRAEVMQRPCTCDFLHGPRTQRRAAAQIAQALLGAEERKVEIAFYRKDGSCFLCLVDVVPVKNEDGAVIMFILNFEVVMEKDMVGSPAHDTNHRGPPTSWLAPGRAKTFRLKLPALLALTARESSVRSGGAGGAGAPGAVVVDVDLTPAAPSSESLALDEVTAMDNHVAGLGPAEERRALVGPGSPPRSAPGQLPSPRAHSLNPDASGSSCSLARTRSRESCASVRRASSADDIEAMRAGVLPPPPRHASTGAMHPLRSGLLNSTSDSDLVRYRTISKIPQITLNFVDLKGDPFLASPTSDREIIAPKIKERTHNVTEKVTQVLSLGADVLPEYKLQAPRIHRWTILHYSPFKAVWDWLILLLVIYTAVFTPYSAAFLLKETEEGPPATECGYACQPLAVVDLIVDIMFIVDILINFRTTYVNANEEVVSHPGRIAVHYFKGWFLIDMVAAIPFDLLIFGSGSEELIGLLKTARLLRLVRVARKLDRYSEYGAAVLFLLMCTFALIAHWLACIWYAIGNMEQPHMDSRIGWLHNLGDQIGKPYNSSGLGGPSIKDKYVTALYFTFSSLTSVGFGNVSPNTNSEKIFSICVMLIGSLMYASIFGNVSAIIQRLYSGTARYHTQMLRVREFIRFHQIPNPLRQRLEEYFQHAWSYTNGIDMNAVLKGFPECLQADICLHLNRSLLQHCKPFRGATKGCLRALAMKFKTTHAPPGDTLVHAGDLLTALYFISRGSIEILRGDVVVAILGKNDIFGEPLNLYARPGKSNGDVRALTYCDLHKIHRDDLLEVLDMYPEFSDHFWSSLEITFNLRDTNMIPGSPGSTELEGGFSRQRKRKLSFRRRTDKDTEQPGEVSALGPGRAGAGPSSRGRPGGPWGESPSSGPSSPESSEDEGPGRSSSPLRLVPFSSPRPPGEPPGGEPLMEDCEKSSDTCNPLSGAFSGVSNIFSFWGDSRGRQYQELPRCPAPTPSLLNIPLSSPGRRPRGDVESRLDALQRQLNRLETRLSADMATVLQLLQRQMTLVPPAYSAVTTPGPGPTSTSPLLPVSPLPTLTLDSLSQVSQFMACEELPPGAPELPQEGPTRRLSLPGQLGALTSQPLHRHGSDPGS
T1 sequence (Q16620 32-822, species assumed): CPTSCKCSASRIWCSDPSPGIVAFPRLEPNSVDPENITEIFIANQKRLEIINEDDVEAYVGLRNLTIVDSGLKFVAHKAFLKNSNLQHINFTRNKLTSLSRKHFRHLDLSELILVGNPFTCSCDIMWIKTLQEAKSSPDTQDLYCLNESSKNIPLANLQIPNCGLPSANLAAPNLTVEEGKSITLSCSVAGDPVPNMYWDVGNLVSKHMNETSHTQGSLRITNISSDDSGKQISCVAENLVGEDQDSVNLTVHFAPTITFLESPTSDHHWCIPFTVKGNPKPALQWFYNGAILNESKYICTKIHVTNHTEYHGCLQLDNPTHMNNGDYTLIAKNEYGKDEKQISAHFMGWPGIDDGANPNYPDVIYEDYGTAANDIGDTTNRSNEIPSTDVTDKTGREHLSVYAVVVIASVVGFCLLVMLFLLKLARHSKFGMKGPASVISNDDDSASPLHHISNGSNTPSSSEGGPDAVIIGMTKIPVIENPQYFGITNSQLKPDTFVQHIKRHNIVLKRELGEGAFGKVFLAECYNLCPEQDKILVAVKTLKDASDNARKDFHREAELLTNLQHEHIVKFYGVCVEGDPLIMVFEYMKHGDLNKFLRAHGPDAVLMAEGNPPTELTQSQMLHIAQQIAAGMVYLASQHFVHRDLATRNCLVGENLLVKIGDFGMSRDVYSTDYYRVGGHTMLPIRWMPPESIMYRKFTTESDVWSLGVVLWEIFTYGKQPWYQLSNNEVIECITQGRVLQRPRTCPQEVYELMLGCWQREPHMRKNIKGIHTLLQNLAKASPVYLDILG

Consider `O=c1cc(-c2ccccc2)oc2c(O)c(O)ccc12` [7,8-DHF, 7,8-dihydroxyflavone], for which, in series [1] (earlier work on 7,8-DHF), the oral bioavailability entry is reported as “approximately 4.6%”.

`NCc1ccc(-c2cc(=O)c3ccc4nc(C(F)(F)F)[nH]c4c3o2)cc1` [#1]: on TrkB, the “pro-survival EC50” value is listed as “excessively high”.

On to `CNC(=O)c1ccc(-c2cc(=O)c3ccc4nc(C(F)(F)F)[nH]c4c3o2)cc1` [#3], for which the Papp in “Permeability PAMPA-BBB” is 0.815 ×10⁻⁶ cm/s. This molecule came in with an IC50 at hERG above 10 µM. The half-life in series [2] is above 8 h; in [4], above 8 h; in series [5] (liver microsomes, read-out: Stability-Microsomes T1/2), 22.5 h; in [7], above 8 h; in [8] it was above 8 h. Further, the results for the fraction unbound in series [3] and in [6] were 0.002 and 0.005, respectively. The Papp B→A in “Permeability Caco-2” was determined as 28.7 ×10⁻⁶ cm/s. Further, the hepatocyte CLint in series [4] and in [8] was below 3 µL/min/1e6 cells in each case. Moreover, the solubility in the series “Solubility (pH 7.4; PBS)” (aqueous buffer) was above 100 µM. Moreover, the microsomal CLint in series [5] (liver microsomes, read-out: Stability-Microsomes CL) is 1.03 µL/min/mg.

In the case of `CN(C)C(=O)c1ccc(-c2cc(=O)c3ccc4nc(C(F)(F)F)[nH]c4c3o2)cc1` [#4], in the series “Permeability PAMPA-BBB”, the Papp is 1.27 ×10⁻⁶ cm/s. For the same molecule, the IC50 on hERG is above 10 µM. Further, the half-life in [2], in series [4], in series [7] and in series [8] was above 8 h each time. Further, the fraction unbound was 0.004 in [3] and 0.009 in series [6]. For the same molecule, the Papp B→A in “Permeability Caco-2” turned out to be 45.9 ×10⁻⁶ cm/s. Further, the hepatocyte CLint in [4] and in series [8] was below 3 µL/min/1e6 cells throughout. Moreover, the “pro-survival EC50” value on TrkB was “comparable”. Moreover, in “Solubility (pH 7.4; PBS)” (aqueous buffer), the solubility was above 100 µM.

As to `N#Cc1ccc(-c2cc(=O)c3ccc4[nH]c(C(F)(F)F)nc4c3o2)cc1` [CF3CN, reference compound], the “Permeability-PAMPA-BBB Pe” value in “Permeability PAMPA-BBB” is given as 3.09 10 cm/s. At hERG, this molecule showed an IC50 above 25 µM. Also, the “Stability-Plasma T1/2” value in [2] is given as >480 (mouse); min; in series [7], >480 (human) min. Also, the “Plasma Protein Binding Fu, plasma” value is given as 0.101% (human); in the series on plasma proteins [9] and 3.55% (mouse) with plasma proteins [11]. This molecule also had a t1/2 in series [10] of 2.994 ± 1.538 h. In the series with Caco-2 cells, the “Caco-2 Efflux Ratio” value is on record as 3.6. For the same molecule, in the series with Caco-2 cells (b-a), the “Permeability-Caco-2 Papp (b-a)” value was 42.6 (b-a) 10 cm/s. Besides, the “Stability-Hepatocytes T1/2” value in series [4] is listed as >480 (human) min; in series [8], >480 (mouse); min. In the series “Solubility (pH 7.4; PBS)”, this molecule yielded a solubility above 200 µM. For the same molecule, the “Stability-Microsomes CL” value in series [5] was <12.8(human); μL/min/mg; in [12], <12.8(mouse) μL/min/mg. Further, the “Stability-Microsomes T1/2” value in series [5] is >180(human); min; in series [12], >180(mouse) min. In addition, the “B/P Ratio (Brain/Plasma Ratio)” value in series [1] (earlier work on CF3CN) is on record as “approximately 1%”.

These data come from US20260041670A1, “DRUGS FOR PREVENTING AND/OR TREATING ALZHEIMER'S DISEASE” (SHENZHEN UNIVERSITY OF ADVANCED TECHNOLOGY, priority 2023, published 2026).
